# Data: article PMC8624133, “10th Trends in Medical Mycology Held on 8 to 11 October 2021, Aberdeen, Scotland, Organized by the European Confederation of Medical Mycology (ECMM)” (Journal of Fungi, 2021)
# Read-outs that look alike come from different tables or passages of the source.
# What was measured:
# A. fumigatus conidia = assay: Conidia killing by epithelial cells with sulfide donor; format: cell-based, Aspergillus fumigatus
# Text: Materials & Methods: We deleted A. fumigatus genes to identify the enzymes primarily responsible for persulfidation as confirmed by fluorescence proteomic and microscopic analyses. We then used enzymatic assays, killing experiments and murine models to characterize the relevance of persulfidation for A. fumigatus virulence. We performed a genetic association study of the frequencies of a Single Nucleotide Polymorphism (SNP) in the human gene with the probability of suffering Invasive pulmonary aspergillosis (IPA) in hematopoietic stem cell transplant (HSCT) recipients. Next, we investigated the antifungal capacities of host cells using our engineered A549 cell line and alveolar macrophages and neutrophils derived from knock-out mice. Subsequenlty we investigated the interdependency of fungal and human persulfidation levels using Western-blot and fluorescence microscopy. Finally, we performed killing assays in the presence of a sulfide donor to potentiate host persulfidation.
# CDR1 = assay: Rhodamine 6G (R6G) efflux
# Candida albicans = assay: CLSI M27-A3/M27-S4 MIC and MFC; format: cell-based
# Description: (§1) Methods & Materials: To evaluate the antifungal effect of each combination of nystatin and morencidine-like peptide, the protocol presented in CLSI M27-A3 and CLSI M27-S4 was used and the minimum inhibitory concentration was determined.
# Candida tropicalis = assay: CLSI M27-A3/M27-S4 MIC and MFC; format: cell-based
# Description: as §1
# Candida glabrata = assay: CLSI M27-A3/M27-S4 MIC and MFC; format: cell-based
# Description: as §1
# T. mentagrophytes [1] = assay: EUCAST E.DEF11.0 susceptibility
# Description: Materials/methods: Samples from patients with clinically suspected dermatophytosis attending the outpatient Dermatology-Venereology Department of “Attikon” hospital during 2010–2019 were collected. Specimens were processed for direct microscopic examination (Blankophor in 10% KOH) and were inoculated on two plates each of Sabouraud’s dextrose agar supplemented with gentamicin + chloramphenicol and the other containing phenol red + cyclohexamide (incubation at 30 °C up to 4 weeks). Recovered isolates were identified to the genus and species level by standard phenotypic methods based on their colonial/microscopic morphology and biochemical properties (hydrolysis of urea) and were stored in 10% glycerol stocks at −70 °C.
# [2] = system: clinical Trichophyton spp. isolates; assay: Checkerboard microdilution based on EUCAST; format: cell-based; details: for MIC: Trichophyton, read-out: geometric mean MIC, drug alone; for FICI of isolates exhibiting synergy / isolates with synergistic interactions: terbinafine + itraconazole
# Description: Materials & Methods: The combination has been tested against 9 terbinafine-susceptible and 7 terbinafine-resistant clinical Trichophyton spp. isolates from India. In vitro interactions were evaluated by a microdilution checkerboard technique based on the EUCAST reference method for antifungal susceptibility testing. The mode of interaction between terbinafine and itraconazole was determined by the fractional inhibitory concentration index (FICI). The FICI was interpreted as FICI ≤ 0.5 = synergy, FICI > 0.5–4 = no interaction, and FICI > 4.0 = antagonism.
# dermatophyte strains = assay: Terbinafine modified breakpoint method; format: cell-based
# Description: In vitro sensitivity testing against terbinafine was carried out using a modified breakpoint method according to Yamada et al., (2017) and Ebert et al., (2020).
# [3] = system: Exophiala phaeomuriformis; assay: MIC, CLSI M27-A3; format: cell-based; details: read-out: MIC values
# Procedure, shortened: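 Isolate recovered from aviation kerosene by 0.22 μm membrane filtration, grown on potato dextrose agar at 30 °C for seven days and identified by ITS sequencing. Susceptibility to clinical antifungals tested per CLSI M27-A3.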
# [4] = system: T. rubrum and T. interdigitale isolates; assay: CLSI M38A2 broth microdilution
# [5] = system: T. rubrum and T. interdigitale; details: cited from earlier work
# T. rubrum = details: eight susceptible strains; ref Arendrup et al., 2020; cited from earlier work
# [6] = system: T. mentagrophytes isolates; details: cited from earlier work
# T. mentagrophytes [7] = assay: EUCAST E.DEF 11.0 MIC; format: cell-based; details: Trichophyton mentagrophytes
# [8] = system: clinical dermatophyte isolates; assay: Inhibition of dermatophyte biofilm formation; format: cell-based
# Description: Materials and Methods: The study population consisted of 50 dermatophyte isolates that were collected from 2019 to 2020 from patients referred to the two mycology laboratory of Shiraz, Iran. The isolates were identified by ITS gene region sequencing. The suspension (equivalent to 0.5 McFarland) of the isolates was used to evaluate the ability of the isolates to form biofilms and also the effect of itraconazole, terbinafine and griseofulvin at concentrations of 2–32 μg/mL on inhibiting biofilm formation. Two optical microscope and a scanning electron microscope were used to study the microscopic structure of biofilms formed on the surface of 96-well plate wells.
# Trichophyton spp. = assay: Agar-based screening method; format: cell-based; details: 0.5 McF, 5 days, 30 °C
# Description: Inter-experimental variation was evaluated by testing 10 isolates on three different days. Single-centre validation: After determining the optimal conditions for the agar screening method, 112 molecularly identified Trichophyton spp. clinical isolates were tested.
# [9] = system: dermatophyte standard strains and clinical isolates; assay: Broth microdilution MIC; format: cell-based, Trichophyton and Microsporum spp.; details: all tested strains
# Description: Materials & Methods: The minimum inhibitory concentration (MIC) of honokiol was assessed by broth microdilution method against standard strains (Trichophyton rubrum ATCC 28188, Trichophyton mentagrophytes ATCC 9533), and clinical isolates (T. rubrum, T. ajelloi, Microsporum canis and M. gypseum). Evaluation of honokiol effect on ergosterol biosynthesis was assessed by high performance liquid chromatography. Checkerboard microtiter method was used to identify synergistic combinations of honokiol with terbinafine against Trichophyton rubrum ATCC 28188. The combinatorial effect was evaluated by calculating the fractional inhibitory concentration index (FICI).
# T. indotineae = details: eleven susceptible strains; ref Arendrup et al., 2020; cited from earlier work
# [10] = system: environmental yeasts from a lagoon; assay: organism not typed; format: cell-based
# [11] = 7 terbinafine-resistant isolates
# [12] = 9 terbinafine-susceptible isolates
compound,measurement,setting,value
C1COCCN1.COc1ccc(P(=S)(S)N2CCOCC2)cc1 (centres unmarked) [GY4137],conidia killing capacity of epithelial cells,A. fumigatus conidia,enhanced
Milbemycin oxim A3,R6G efflux phenotype,CDR1,mimicked efflux phenotypes of cdr1∆ mutants
C[C@@H]1[C@H](O)[C@@H](C)/C=C/C=C/CC/C=C/C=C/C=C/C=C/C(O[C@H]2O[C@H](C)[C@@H](O)[C@H](N)[C@@H]2O)CC2O[C@](O)(CC(O)C(O)CCC(O)CC(O)CC(O)CC(=O)O[C@H]1C)CC(O)C2C(=O)O (some centres unmarked) [nystatin],MIC (maximum inhibitory effect),Candida albicans,1.25 µg/mL
same,MIC (maximum inhibitory effect),Candida tropicalis,0.625 µg/mL
same,MIC (maximum inhibitory effect),Candida glabrata,1.25 µg/mL
CN(C/C=C/C#CC(C)(C)C)Cc1cccc2ccccc12 [terbinafine],strains with elevated MICs,T. mentagrophytes [1]; 9/24,37.5%
same,MIC,"T. mentagrophytes [1]; Trichophyton mentagrophytes, read-out: MIC of strains with elevated MICs",0.25 to 8 µg/mL
same,"MIC range, drug alone",[2]; [11],2 to 64 µg/mL
same,"MIC range, drug alone",[2]; [12],0.03125 to 0.5 µg/mL
same,MIC,[2]; [11],11.9 µg/mL
same,MIC,[2]; [12],0.12 µg/mL
same,FICI of isolates exhibiting synergy,[2]; resistant isolates,0.032 to 0.3125
same,isolates with synergistic interactions,[2]; resistant isolates,4/7
same,FICI of isolates exhibiting synergy,[2]; susceptible isolates,0.3125 to 0.5
same,isolates with synergistic interactions,[2]; susceptible isolates,4/9
same,in vitro resistance,"dermatophyte strains; T. mentagrophytes ITS type VIII (T. indotineae), MIC ≥0.2 µg/mL counts as resistant",In vitro resistance
same,MIC,"dermatophyte strains; few strains, conspicuous but not resistant",0.1 µg/mL
same,MIC,[3],0.0156 µg/mL
same,isolates less susceptible by microdilution,[4],2.44%
same,MIC,[4]; Trichophyton interdigitale,1 to 2 µg/mL
same,terbinafine resistance,[5],1%
same,MIC,T. rubrum,under 0.25 µg/µL
same,resistant isolates,[6],30–70%
same,MIC,T. mentagrophytes [7],0.25 to 8 µg/mL
same,IC50,"[8]; inhibition of biofilm formation, read-out: mean concentrations of IC50",2.42 µg/mL
same,samples with IC50 in concentration <2,[8]; tested at 2–32 μg/mL,70%
same,optimal agar concentration preventing growth of WT isolates,Trichophyton spp.; for high-level resistant isolates,0.125 mg/L
same,optimal agar concentration preventing growth of WT isolates,Trichophyton spp.; for low-level resistant isolates,0.01 mg/L
same,MIC,[9],0.03 to 0.06 µg/mL
same,MIC,T. indotineae,under 0.25 µg/µL
same,isolates classified as resistant-like,[10],39
same,MIC,[10]; read-out: MIC of resistant-like isolates,4 to 256 µg/mL
